Experimental findings from patent US7838539B2, “Nicotine receptor agonists in stem cell and progenitor cell recruitment” (priority 1999, dated 2010) are described below.

Where two headings read alike, the source gives them in different places.

Data set [1] concerns fibrovascular growth into the disc (index of angiogenesis). In words: Disc angiogenesis system (DAS). Type of data set: in vivo, C57BL/6J mice. Conditions: for effect on nicotine-induced fibrovascular growth: oral indomethacin 20 mcg/ml or LNNA 6 mg/ml; for angiogenesis in comparison to vehicle: agent in disc pellet: bFGF 20 mcg, Del-1 0.2 M, nicotine 10^-6 M. The source says:
To study whether nicotine induces angiogenesis in vivo, we employed the disc angiogenesis system (DAS) (Kowalski et al. (1992) Exp Mol Pathol 56(1):1-19; Fajardo et al. (1998) Lab Invest 58:718-7244).
Preparation of the disc The DAS consisted of a disc (11 mm in diameter and 1 mm thickness) made of a polyvinyl alcohol sponge (Kanebo PVA, Rippey Co., Santa Clara, Calif.). Both sides were covered with nitrocellulose cell-impermeable filters (Millipore filters, 0.45 μm in pore diameter, Millipore, SF, Calif.) of the same diameter as the sponge disc, fixed to the sponge using Millipore glue #1 (xx70000.00, Millipore). As a result, cells (and thus vessels) could penetrate or exit only through the rim of the disc (Kowalski et al. (1992) Exp Mol Pathol 56(1):1-19; Fajardo et al. (1998) Lab Invest 58:718-7244).
In order to study the local effect of nicotine on angiogenesis, nicotine was placed in a pellet which was added directly to the disc. Briefly, a 1.5-mm core (pellet) was cut from the disc center. Both the pellets and discs were sterilized prior to assembly in a laminar flow hood. The pellet was loaded with up to 20 mcl (μl) of the nicotine solution and subsequently air-dried. We placed in the disc pellets with either vehicle (PBS, Sigma, Chemical Co., St Louis, Mo., n=5) or nicotine (10^-6 M, Aldrich Chemical Company, Milwaukee, Wis., n=5) to study the effects of locally administered nicotine. For comparison, in some cases basic fibroblast growth factor (bFGF; 20 mcg) or Del-1 protein (0.2 M) was added to the pellet, rather than nicotine. Both bFGF and Del-1 are known to induce angiogenesis. The pellet was then coated with ethylene-vinyl acetate co-polymer (Elvax, Dupont, Chemcentral Corp., Chicago, Ill.) which would permit slow release of the nicotine from the pellet into the disc. The pellet was then re-inserted into the disc before sealing the disc with the millipore filters.
To study the systemic effects of nicotine, in some cases the animals were administered nicotine in their drinking water (see below).
Implantation of the disc The mice were anesthetized with 4% chloralhydrate [intraperitoneal administration (i.p.), 0.1 cc/10 g body weight]. The flanks and posterior surface of the thorax were shaved and cleaned with saturated 70% isopropyl alcohol. A 2-cm incision was made in the skin of the flank contra-lateral to the implantation site. Blunt dissection through the subcutaneous tissue produced a channel into which the saline moistened disc was inserted. The skin was closed with 5.0 silk suture (Kowalski et al. (1992) Exp Mol Pathol 56(1):1-19; Fajardo et al. (1998) Lab Invest 58:718-7244).
Disc removal and preparation Two weeks after disc implantation, the mice were sacrificed with an overdose of 4% chloral hydrate (i.p.) and cervical dislocation. A careful incision was made next to the skin overlying the implanted disc, and the disc was gently removed from the implantation site. Attached tissue was carefully detached from the disc. After removing the disc, one filter was separated from the disc. Discs were then fixed in 10% formalin and embedded flat in paraffin. Subsequently, 5 μm sections were made in a plane through the center of the disc and parallel to the disc surface.
Quantitation of results The disc sections were stained with H&E for light microscopy and histomorphometric measurement of radial growth, and stained with toluidine blue for quantitative determination of total area of fibrovascular growth. Using a video microscope and a computer assisted digital image analysis system (NIH Image 1.59b9), the entire area of fibrovascular growth in the toluidine blue stained disc was calculated and expressed in mm^2. As described in a previous study, total fibrovascular growth area is directly proportional to the total area of the disc occupied by blood vessels (Kowalski et al. (1992) Exp Mol Pathol 56(1):1-19; Fajardo et al. (1998) Lab Invest 58:718-7244).

Data set [2] concerns endothelial progenitor cells (EPCs). As to conditions: nicotine 0.1 g/L drinking water, 3 weeks after ischemia.
Description: In order to further examine the role of nicotine in induction of angiogenesis, the recruitment of endothelial progenitor cells was studied.
Parabiotic mouse pairs were created to investigate the mobilization and incorporation of precursors to vessel formation in normal and ischemic conditions using a hind limb ischemia model of angiogenesis (as described above), and the effect of nicotine. The parabiotic partners were selected so that they shared all major histocompatibility antigens, and were therefore free of immunological barriers to cell migration and angiogenesis. Assaying for genetic markers unique to one animal of the pair (e.g., the Y chromosome where the pair is made up of a female mouse and a male mouse) provides for unambiguous cell tracking between the mice. The model is further optimized by the use of a second genetic marker to differential the individuals (e.g., a transgene present in one partner and not the other), thus increasing the sensitivity and the accuracy of the identification of the origin of single cells. […]
Data set [3] deals with capillary density in hindlimb muscle. On the procedure: Mice were anesthetized with 4% chloral hydrate [intraperitoneal administration (i.p.), 0.1 cc/10 g body weight). The medial surface of both hind limbs were shaved and then cleaned with betadine solution. A 1.5-cm longitudinal incision was performed, extending from the knee to the inguinal ligament. Through this incision, the superficial femoral artery was dissected free along its length. After the distal ends of both the external iliac and superficial femoral arteries were ligated with 7.0 (Ethicon), complete excision of the femoral artery was performed. An additional set of mice underwent sham operation. The incisions were then closed with discontinuous stitches of 5.0 silk suture (Ethicon). Ampicillin (1 mg/10 gm body weight) intraperitoneal injection was administered after surgical procedure.
Tissue Preparation. Three weeks after surgery, mice were euthanized with an overdose of 4% chloral hydrate (i.p) and cervical dislocation, and the adductor and semimembranous muscles were collected for capillary density assessment. Briefly, a longitudinal incision in the medial thigh was made to expose the entire hindlimb muscle. The adductor and semimembranous muscles were removed and immediately frozen in OCT. Subsequently, sections 5 μm were taken from the mid-region of each muscle in a transverse orientation. The sections were air dried and fixed in acetone.
Capillary Densitometry. Immunohistochemistry was performed using an alkaline phosphatase assay to identify the endothelial cells. An eosin counterstain was used to differentiate myocytes. Capillaries and myocytes were identified and counted using light microscopy (20×). For each section, four different fields were selected and the total number of capillaries and myocytes per field determined. These values were averaged to provide a determination of capillary density for each experimental limb. To ensure that value for capillary density was not overestimated due to muscle atrophy, or underestimated due to interstitial edema, capillary density was expressed as a ratio of capillaries to myocytes present in the same field.
Daily intramuscular injections of nicotine solution or vehicle were administered (50 μl) for a period of three weeks.

A further data set is described as follows: in vivo. As to conditions: C57B16j, mouse, plasma, oral, 100 μg/ml in drinking water. How it is done: (§1) Mice (C57B16j) were given solution containing vehicle (0.4% saccharine in distilled water) or nicotine (100 μg/ml) ad libitum in their drinking water. After 6 weeks, peripheral blood, bone marrow and spleen were harvested. Cell counts were obtained in the blood, spleen and bone marrow, and bone marrow cells were isolated for fluorescent activated cell sorting (FACS). To detect hematopoietic stem cells (HSCs), fluorescently labeled antibodies directed against the following antigens were used: Lineage antigens (CD3,4,5, and 8; B220; Gr1, Mac1 and Ter119), cKit, Sca 1, and Flk2. HSCs were conventionally defined as Lin−, cKit+, Sca1+, and […]. All cells were stained with PI (propidium iodide) to separate live from dead cells.

For a further data set, the system named is hematopoietic stem cells. As to conditions: 100 μg/ml in drinking water, 6 weeks. On the procedure: as §1
[4] abbreviates: highest intramuscular dose (3.2 μg/kg daily, three weeks).

On to `NC(=NCCC[C@H](N)C(=O)O)N[N+](=O)[O-]` [LNNA, L, nitro-arginine], for which the “effect on nicotine-induced fibrovascular growth” value in data set [1] (local nicotine in disc) and in data set [1] (systemic nicotine) was “blocked” throughout.

Consider `COc1ccc2c(c1)c(CC(=O)O)c(C)n2C(=O)c1ccc(Cl)cc1` [indomethacin], for which the “effect on nicotine-induced fibrovascular growth” value in data set [1] (local nicotine in disc) and in data set [1] (systemic nicotine) was “blocked” each time.

In the case of `CN1CCC[C@H]1c1cccnc1` [nicotine, S-3-(1-methyl-2-pyrrolidinyl)pyridine], the number of vessels result in data set [2] is “significant increase”. Further, in data set [2] (saline group 1.6%, P<0.001), the “percentage of vessels that incorporated EPC” value amounted to 7.3%. Also, the “capillary density in the ischemic limb” value in data set [3] (0.03 μg/kg intramuscular daily for three weeks, vehicle control 0.35) turned out to be 0.67 capillaries/myocyte. In addition, in data set [3] (higher intramuscular doses), the “angiogenic effect, dose dependence” value is given as “less angiogenesis is observed”. Also, in data set [3] (setting [4]), the “angiogenesis in the ischemic limb” value is reported as “angiogenesis was not increased”; the “toxicity at injection site” value was “some toxicity was observed, with evidence of interstitial edema and myocyte necrosis”. Also, the “angiogenic effect, dose dependence” value in data set [3] (intermediate intramuscular doses) is listed as “greatest effect”. Also, in data set [3] (intramuscular nicotine in the ischemic limb, untreated non-ischemic limb), the “angiogenic effect in non-ischemic hindlimbs” value was “no angiogenic effect was detected”. The molecule further gave a concentration at 6 weeks in the data set “in vivo” of 87 ng/mL. In the data set on hematopoietic stem cells, the “appearance of mice at the time of sacrifice” value is “appeared healthy”, the “cellularity of the bone marrow” value was “increased”, the “cellularity of the spleen” value is recorded as “increased” and the “peripheral white blood cell count” value is recorded as “elevated”. Further, in the data set on hematopoietic stem cells (FACS), the “hematopoietic stem cells (kit/sca+ cells) in bone marrow” value is reported as “significant increase”, the “long term HSCs (self-renewing cells) in bone marrow” value was “equal increases” and the “short term HSCs in bone marrow” value was “an increase”. For the same molecule, in data set [1], the “angiogenesis in comparison to vehicle” value was “increased angiogenesis to the same degree”. In data set [1] (systemic nicotine in drinking water), the “angiogenesis with systemic nicotine compared with locally administered bFGF and Del-1” value is recorded as “enhanced angiogenesis to a much greater degree”. In addition, in data set [1] (systemic versus local nicotine), the “angiogenic effect of systemic compared with local nicotine administration” value is given as “greater than local nicotine administration”.

Regarding “bFGF: basic fibroblast growth factor, known to induce angiogenesis; comparison agent in the disc pellet”, in data set [1], the “angiogenesis in comparison to vehicle” value is reported as “increased angiogenesis to the same degree”.

B1: Del1: Del-1 protein, known to induce angiogenesis; comparison agent in the disc pellet (protein, UniProt O43854 24-480, looked up)
EGF-like repeat and discoidin …: DICDPNPCENGGICLPGLADGSFSCECPDGFTDPNCSSVVEVASDEEEPTSAGPCTPNPCHNGGTCEISEAYRGDTFIGYVCKCPRGFNGIHCQHNINECEVEPCKNGGICTDLVANYSCECPGEFMGRNCQYKCSGPLGIEGGIISNQQITASSTHRALFGLQKWYPYYARLNKKGLINAWTAAENDRWPWIQINLQRKMRVTGVITQGAKRIGSPEYIKSYKIAYSNDGKTWAMYKVKGTNEDMVFRGNIDNNTPYANSFTPPIKAQYVRLYPQVCRRHCTLRMELLGCELSGCSEPLGMKSGHIQDYQITASSIFRTLNMDMFTWEPRKARLDKQGKVNAWTSGHNDQSQWLQVDLLVPTKVTGIITQGAKDFGHVQFVGSYKLAYSNDGEHWTVYQDEKQRKDKVFQGNFDNDTHRKNVIDPPIYARHIRILPWSWYGRITLRSELLGCTEEE
Turning to B1, the “angiogenesis in comparison to vehicle” value in data set [1] is recorded as “increased angiogenesis to the same degree”.
